Experimental data taken from patent US8236339B2, “Therapeutic delivery of carbon monoxide” (priority 2001, dated 2012).
Where two headings read alike, the source gives them in different places.

What was measured:
[1] = system: deoxymyoglobin (deoxy-Mb); assay: Myoglobin assay: conversion of deoxy-Mb to MbCO on direct addition of metal carbonyl; format: biochemical, horse; conditions: direct addition to myoglobin solution (66 μM), no light
Description: The release of CO from metal carbonyl complexes was assessed spectrophotometrically by measuring the conversion of deoxymyoglobin (deoxy-Mb) to carbonmonoxy myoglobin (MbCO). MbCO has a distinctive absorption spectrum between 500 and 600 nm, and changes at 540 nm were used to quantify the amount of CO liberated. Myoglobin solutions (66 μM final concentration) were prepared freshly by dissolving the protein in 0.04 M phosphate buffer (pH 6.8). Sodium dithionite (0.1%) was added to convert myoglobin to deoxy-Mb prior to each reading. All the spectra were measured using a Helios a spectrophotometer.
Various metal carbonyl complexes were tested for their ability to elicit MbCO formation when added directly to a deoxy-Mb solution. To different extents, [Ru(CO)3Cl2]2, [Ru(CO)2(DMSO)2Cl2], [Ru(CO)3Cl2(cytosine)] and […] all released CO when added directly to the Mb solution.
The metal carbonyl complex was solubilized in DMSO (9.7 mM stock solution), aliquots of 2 to 32 μl were added directly to 1 ml of deoxy-Mb solutions (66 μM) and absorption spectrum determined immediately after mixing the samples by inversion.

[2] = system: deoxymyoglobin (deoxy-Mb); assay: Light-induced CO release diffusing through a membrane into myoglobin solution; format: biochemical, horse; conditions: for MbCO formation upon illumination: carbonyl solution exposed to cold light, gas diffusing through membrane
Description: Therefore release of CO was induced by exposing these metal carbonyl complexes to a cold light source and allowing the gas to diffuse through a membrane before reacting with myoglobin as shown in FIG. 1.
Five hundred microliters of iron pentacarbonyl ([Fe(CO)5], 99.9%) or 1 ml of dimanganese decacarbonyl ([Mn2(CO)10], 13 mM in DMSO) (see also chemical structure) were placed as carbonyl solution 2 in a plastic tube 1. A cell culture insert 3 (Costar) was sealed on top in order to create two separate chambers with a 0.6 cm air space between the solution 2 and an insert membrane 6 (Anapore™ 0.4 μm). 1.5 ml of deoxy-Mb solution (66 μM) was placed in the insert which was covered with Parafilm™ 5. The carbonyl solution was then exposed to cold light from a source 7 to stimulate CO release, allowing the gas to diffuse through the membrane 6 into the myoglobin solution 4. Aliquots of the myoglobin solution 4 were taken at different times and the conversion of deoxy-Mb to MbCO measured spectrophotometrically.

[3] = system: Rat vascular smooth muscle cells; assay: Cell viability of vascular smooth muscle cells (colorimetric assay); format: cell-based; conditions: 0-100 μM, 24 h in complete medium
Description: Rat vascular smooth muscle cells were obtained from the Coriell Cell Repository (Camden, N.J., USA) and grown in Dulbecco's […] (MEM) supplemented with 20% foetal calf serum, 2×MEM vitamins, 2×MEM non-essential and essential amino acids, penicillin (100 units/ml) and streptomycin (0.1 mg/ml). Confluent cells were treated with different concentrations of metal carbonyl (introduced as DMSO solution—see section B) for various times and cell viability was assessed using a colorimetric assay kit from Promega (Madison, Wis., USA) as previously described (47) after 3 or 24 h incubation, or after 3 h exposure to the agents followed by 21 h incubation in complete media. Results are expressed as the mean±s.e.m. of 6 independent experiments and differences were considered statistically significant at P<0.05 (*).

[4] = system: isolated rat hearts; conditions: L-NAME 25 μM perfusion
Description: Langendorff heart preparations were performed using male Lewis rats (300-350 g) as previously described by our group (35). […] (pH 7.4). Coronary perfusion pressure (CPP), a parameter indicative of coronary vessel contractility, was continuously measured by a pressure transducer connected to the aortic cannula and data analyzed with an Acknowledge software (BIOPAC System Inc.).
Hearts removed either from control rats (vehicle-treated) or from animals that were pre-treated with the heme oxygenase-1 inducer hemin (75 μmol/kg, i.p.) the day before, were initially equilibrated for 20 min on the Langendorff apparatus and then perfused with L-NAME (25 μM final concentration) to elicit vasoconstriction. The extent of CPP increase by L-NAME was also monitored over time in hemin-treated animals that received a heme oxygenase inhibitor (SnPPIX, 40 μmol/kg) 1 h prior to heart excision and in control hearts that were perfused with buffer supplemented with [Mn2(CO)10] (13 μM final concentration). Since [Mn2(CO)10] releases CO only by photodissociation, Krebs buffer containing [Mn2(CO)10] was exposed to a cold light source immediately before entering the aortic cannula.

[5] = L-NAME-induced increase in mean arterial pressure in anaesthetised Lewis rats; format: in vivo, rat; conditions: L-NAME 30 μmol/kg i.v.; [Ru(CO)3Cl2]2 60 μmol/kg i.v. 1 h before; hemin 75 μmol/kg i.p. 24 h before; SnPPIX 40 μmol/kg i.p.
Description: Lewis rats (280-350 g) were anaesthetised by intramuscular injection of 1 ml/kg Hypnorm (fentanyl 0.315 mg/ml and fluanisone 10 mg/ml) followed 5 min later by an intraperitoneal injection of 5 mg/kg diazepam. Specially designed femoral artery and venous catheters were then surgically implanted as previously described (40). The arterial cannula was connected to a Grass pressure transducer and blood pressure monitored continuously using a polygraph recorder. Experiments were conducted on anaesthetized animals and recordings were made within 30 min of the surgical procedure.
Control rats (vehicle-treated) and animals that were pre-treated with hemin (75 μmol/kg, i.p) 24 h prior to blood pressure monitoring were then administered with an intravenous injection of 30 μmol/Kg L-NAME to elicit an increase in mean arterial pressure. The extent of blood pressure increase by L-NAME was also monitored over time in hemin-treated animals that received SnPPIX (40 μmol/kg, i.p.) and in control rats previously injected with [Ru(CO)3Cl2]2 (60 μmol/kg, i.v.). In these two groups, SnPPIX or [Ru(CO)3Cl2]2 were administered to animals 1 h prior to L-NAME injection.

[6] = system: HO-1; assay: Expression of heme oxygenase-1 in rat hearts (immunostaining, Northern blot); format: in vivo; conditions: 24 h after hemin treatment, i.p.
Description: For immunohistochemistry analysis, sections of heart muscles (5 μm thickness) were treated with 0.3% H2O2 in methanol to block endogenous peroxidase activity. Immunohistochemical staining was performed using rabbit polyclonal antibody against HO-1 (1:1000 dilution) as previously described (23). The presence of HO-1 was indicated by the development of a brown color. For Northern blot analysis, cardiac tissue was ground in a mortar under liquid nitrogen and suspended in guanidinium thiocyanate lysis buffer, Total RNA was then extracted using a modification of the method described by Chomczynski and Sacchi (49). RNA was run on a 1.3% denaturing agarose gel containing 2.2 M formaldehyde and transferred onto a nylon membrane overnight. The membrane was hybridized using [α-^32P]dCTP-labelled cDNA probes to rat HO-1 and GAPDH genes and bands analyzed using a densitometer as previously described (23, 50).
Hearts were removed from Lewis rats 24 h after treatment with vehicle (control) or hemin ([…], i.p.) and immunostaining for HO-1 was assessed. For Northern blot analysis, rats were treated with hemin (75 μmol/kg, i.p.) and hearts removed at different time points to assess HO-1 mRNA levels (+ve, positive control).

[C-]#[O+].[C-]#[O+].[C-]#[O+].[C-]#[O+].[C-]#[O+].[Fe] [[Fe(CO)5], iron pentacarbonyl]
MbCO formation / CO release when added directly to deoxy-Mb solution [1]: did not result in any appreciable formation of carbonmonoxy myoglobin
MbCO formation upon illumination [2]: gradual increase in MbCO formation observed over time

[C-]#[O+].[C-]#[O+].[C-]#[O+].[C-]#[O+].[C-]#[O+].[C-]#[O+].[C-]#[O+].[C-]#[O+].[C-]#[O+].[C-]#[O+].[Mn].[Mn] [[Mn2(CO)10], dimanganese decacarbonyl]
MbCO formation / CO release when added directly to deoxy-Mb solution [1]: did not result in any appreciable formation of carbonmonoxy myoglobin
time to complete saturation of the myoglobin solution ([2]; 13 μmol/ml, continuous exposure to light): approximately 40 min
MbCO formation upon illumination [2]: gradual increase in MbCO formation observed over time
cytotoxicity on smooth muscle cells [3]: no major cytotoxicity
effect on L-NAME-mediated vasoconstriction / rise in CPP ([4]; listed as (Mn2(CO)10)): unaffected
effect on L-NAME-mediated vasoconstriction / rise in CPP ([4]; listed as [Mn2(CO10]): significantly delayed vasoconstriction and maintained CPP at much lower levels at the end of perfusion

C=CC1=C(C)c2cc3[n-]c(cc4[n-]c(cc5nc(cc1n2)C(C)=C5C=C)c(C)c4CCC(=O)O)c(CCC(=O)O)c3C.[Cl-].[Fe+3] [hemin, ferriprotoporphyrin IX chloride]
effect on L-NAME-mediated vasoconstriction / rise in CPP [4]: markedly attenuated
effect on L-NAME-induced increase in blood pressure [5]: significant suppression
HO-1 protein and mRNA expression in hearts [6]: highly expressed
